Data taken from patent US8835462B2, “Macrocyclic picolinamides as fungicides” (Dow AgroSciences LLC, priority 2012, dated 2014).
Read-outs that look alike come from different tables or passages of the source.

Assays:
Format in all cases: in vivo
Puccinia triticina = experiment: Wheat brown rust (PUCCRT) fungicidal activity on wheat seedlings
Protocol: Technical grades of materials were dissolved in acetone, which were then mixed with nine volumes of water containing 110 ppm Triton X-100. The fungicide solutions were applied onto wheat seedlings using an automated booth sprayer to run-off. All sprayed plants were allowed to air dry prior to further handling. Wheat plants (variety Yuma) were grown from seed in a greenhouse in 50% mineral soil/50% soil-less Metro mix until the first leaf was fully emerged, with 7-10 seedlings per pot. These plants were inoculated with an aqueous spore suspension of Septoria tritici either prior to or after fungicide treatments. After inoculation the plants were kept in 100% relative humidity (one day in a dark dew chamber followed by two to three days in a lighted dew chamber at 20° C.) to permit spores to germinate and infect the leaf. The plants were then transferred to a greenhouse set at 20° C. for disease to develop. When disease symptoms were fully expressed on the 1st leaves of untreated plants, infection levels were assessed on a scale of 0 to 100 percent disease severity. Percent disease control was calculated using the ratio of disease severity on treated plants relative to untreated plants. Evaluation of Fungicidal Activity: Wheat Brown Rust (Puccinia triticina; Synonym: Puccinia recondita f. sp. tritici; Bayer Code PUCCRT) Wheat plants (variety Yuma) were grown from seed in a greenhouse in 50% mineral soil/50% soil-less Metro mix until the first leaf was fully emerged, with 7-10 seedlings per pot. These plants were inoculated with an aqueous spore suspension of Puccinia triticina either prior to or after fungicide treatments. After inoculation the plants were kept in a dark dew room at 22° C. with 100% relative humidity overnight to permit spores to germinate and infect the leaf. The plants were then transferred to a greenhouse set at 24° C. for disease to develop. Fungicide formulation, application and disease assessment followed the procedures as described in the Example A.

Leptosphaeria nodorum = experiment: Wheat glume blotch (LEPTNO) fungicidal activity; conditions: Parastagonospora nodorum, 24 h, 1 Day Protectant, read-out: Disease Control LEPTNO 1DP
Protocol: Technical grades of materials were dissolved in acetone, which were then mixed with nine volumes of water containing 110 ppm Triton X-100. The fungicide solutions were applied onto wheat seedlings using an automated booth sprayer to run-off. All sprayed plants were allowed to air dry prior to further handling. Wheat plants (variety Yuma) were grown from seed in a greenhouse in 50% mineral soil/50% soil-less Metro mix until the first leaf was fully emerged, with 7-10 seedlings per pot. These plants were inoculated with an aqueous spore suspension of Septoria tritici either prior to or after fungicide treatments. After inoculation the plants were kept in 100% relative humidity (one day in a dark dew chamber followed by two to three days in a lighted dew chamber at 20° C.) to permit spores to germinate and infect the leaf. The plants were then transferred to a greenhouse set at 20° C. for disease to develop. When disease symptoms were fully expressed on the 1st leaves of untreated plants, infection levels were assessed on a scale of 0 to 100 percent disease severity. Percent disease control was calculated using the ratio of disease severity on treated plants relative to untreated plants. Evaluation of Fungicidal Activity: Wheat Glume Blotch (Leptosphaeria Nodorum; Bayer Code […]) Wheat plants (variety Yuma) were grown from seed in a greenhouse in 50% mineral soil/50% soil-less Metro mix until the first leaf was fully emerged, with 7-10 seedlings per pot. These plants were inoculated with an aqueous spore suspension of Leptosphaeria nodorum 24 hr after fungicide treatments. After inoculation the plants were kept in 100% relative humidity (one day in a dark dew chamber followed by two days in a lighted dew chamber at 20° C.) to permit spores to germinate and infect the leaf. The plants were then transferred to a greenhouse set at 20° C. for disease to develop. Fungicide formulation, application and disease assessment followed the procedures as described in the Example A.

Venturia inaequalis = experiment: Apple scab (VENTIN) fungicidal activity; conditions: 24 h, 1 Day Protectant, read-out: Disease Control VENTIN 1DP
Protocol: Technical grades of materials were dissolved in acetone, which were then mixed with nine volumes of water containing 110 ppm Triton X-100. The fungicide solutions were applied onto wheat seedlings using an automated booth sprayer to run-off. All sprayed plants were allowed to air dry prior to further handling. Wheat plants (variety Yuma) were grown from seed in a greenhouse in 50% mineral soil/50% soil-less Metro mix until the first leaf was fully emerged, with 7-10 seedlings per pot. These plants were inoculated with an aqueous spore suspension of Septoria tritici either prior to or after fungicide treatments. After inoculation the plants were kept in 100% relative humidity (one day in a dark dew chamber followed by two to three days in a lighted dew chamber at 20° C.) to permit spores to germinate and infect the leaf. The plants were then transferred to a greenhouse set at 20° C. for disease to develop. When disease symptoms were fully expressed on the 1st leaves of untreated plants, infection levels were assessed on a scale of 0 to 100 percent disease severity. Percent disease control was calculated using the ratio of disease severity on treated plants relative to untreated plants. Evaluation of Fungicidal Activity: Apple Scab (Venturia Inaequalis; Bayer Code […]) Apple seedlings (variety McIntosh) were grown in soil-less Metro mix, with one plant per pot. Seedlings with two expanding young leaves at the top (older leaves at bottom of the plants were trimmed) were used in the test. Plants were inoculated with a spore suspension of Venturia inaequalis 24 hr after fungicide treatment and kept in a 22° C. dew chamber with 100% RH for 48 hr, and then moved to a greenhouse set at 20° C. for disease to develop. Fungicide formulation, application and disease assessment on the sprayed leaves followed the procedures as described in the Example A.

Uncinula necator = experiment: Grape powdery mildew (UNCINE) fungicidal activity; conditions: Erysiphe necator, 24 h, 1 Day Protectant, read-out: Disease Control UNCINE 1DP
Protocol: Technical grades of materials were dissolved in acetone, which were then mixed with nine volumes of water containing 110 ppm Triton X-100. The fungicide solutions were applied onto wheat seedlings using an automated booth sprayer to run-off. All sprayed plants were allowed to air dry prior to further handling. Wheat plants (variety Yuma) were grown from seed in a greenhouse in 50% mineral soil/50% soil-less Metro mix until the first leaf was fully emerged, with 7-10 seedlings per pot. These plants were inoculated with an aqueous spore suspension of Septoria tritici either prior to or after fungicide treatments. After inoculation the plants were kept in 100% relative humidity (one day in a dark dew chamber followed by two to three days in a lighted dew chamber at 20° C.) to permit spores to germinate and infect the leaf. The plants were then transferred to a greenhouse set at 20° C. for disease to develop. When disease symptoms were fully expressed on the 1st leaves of untreated plants, infection levels were assessed on a scale of 0 to 100 percent disease severity. Percent disease control was calculated using the ratio of disease severity on treated plants relative to untreated plants. Evaluation of Fungicidal Activity: Grape Powdery Mildew (Uncinula Necator; Bayer Code […]) Grape seedlings (variety Carignane) were grown in soil-less Metro mix, with one plant per pot, and used in the test when approximately one month old. Plants were inoculated 24 hr after fungicide treatment by shaking spores from infected leaves over test plants. Plants were maintained in a greenhouse set at 20° C. until disease was fully developed. Fungicide formulation, application and disease assessment on the sprayed leaves followed the procedures as described in the Example A.

[1] = 24 h, 1 Day Protectant, read-out: Disease Control PUCCRT 1 DP
[2] = 72 h, 3 Day Curative, read-out: Disease Control PUCCRT 3 DC

SMILES | pest or weed control at 100 ppm (Puccinia triticina; [1]) [%] | pest or weed control at 100 ppm (Puccinia triticina; [2]) [%] | pest or weed control at 100 ppm (Leptosphaeria nodorum) [%] | pest or weed control at 100 ppm (Venturia inaequalis) [%] | pest or weed control at 100 ppm (Uncinula necator) [%]
COc1ccnc(C(=O)N[C@H]2COC[C@H](Cc3ccccc3)[C@@H](OCC(C)C)[C@H](C)OC2=O)c1OC(C)=O [Compound 9, 2-(((3S,7S,8R,9S)-7-benzyl-8-isobutoxy-9-methyl-2-oxo-1,5-dioxonan-3-yl)carbamoyl)-4-methoxypyridin-3-yl acetate] | 80 to 100 | 80 to 100 | 80 to 100 | 80 to 100 | 80 to 100
COc1ccnc(C(=O)N[C@H]2COC[C@H](Cc3ccccc3)[C@@H](OC3CCCC3)[C@H](C)OC2=O)c1OCOC(C)=O [Compound 106] | 80 to 100 | 80 to 100 | 80 to 100 | – | –
COc1ccnc(C(=O)N[C@H]2COC[C@H](Cc3ccccc3)[C@@H](OC)[C@H](C)OC2=O)c1OCOC(C)=O [Compound 39] | 80 to 100 | 80 to 100 | 80 to 100 | 0 to 80 | 0 to 80
COc1ccnc(C(=O)N[C@H]2COC[C@H](Cc3ccccc3)[C@@H](OCC(C)C)[C@H](C)OC2=O)c1O [Compound 2, N-((3S,7S,8R,9S)-7-benzyl-8-isobutoxy-9-methyl-2-oxo-1,5-dioxonan-3-yl)-3-hydroxy-4-methoxypicolinamide] | 80 to 100 | 80 to 100 | – | 80 to 100 | 0 to 80
COC(=O)/C=C/O[C@@H]1[C@@H](Cc2ccccc2)COC[C@H](NC(=O)c2nccc(OC)c2OCOC(C)=O)C(=O)O[C@H]1C [Compound 36] | 80 to 100 | 80 to 100 | 80 to 100 | 0 to 80 | 0 to 80
COc1ccnc(C(=O)N[C@H]2COC[C@H](Cc3ccccc3)[C@@H](OC3CCCC3)[C@H](C)OC2=O)c1OC(C)=O [Compound 107] | 80 to 100 | 80 to 100 | 80 to 100 | 0 to 80 | 0 to 80
COc1ccnc(C(=O)N[C@H]2COC[C@H](Cc3ccccc3)[C@@H](OCCC(C)OC)[C@H](C)OC2=O)c1OCOC(C)=O (some centres unmarked) [Compound 46] | 80 to 100 | 80 to 100 | 80 to 100 | 80 to 100 | 0 to 80
COc1ccnc(C(=O)N[C@H]2COC[C@H](Cc3ccccc3)[C@@H](OC3CCCC3)[C@H](C)OC2=O)c1OCOC(=O)C(C)C [Compound 108] | 80 to 100 | 80 to 100 | 80 to 100 | 80 to 100 | 80 to 100
CCCCCO[C@@H]1[C@@H](Cc2ccccc2)COC[C@H](NC(=O)c2nccc(OC)c2OCOC(C)=O)C(=O)O[C@H]1C [Compound 26] | 80 to 100 | 80 to 100 | 80 to 100 | 80 to 100 | 80 to 100
COc1ccnc(C(=O)N[C@H]2COC[C@H](Cc3ccccc3)[C@@H](OCCCC(F)(F)F)[C@H](C)OC2=O)c1OCOC(C)=O [Compound 23] | 80 to 100 | 80 to 100 | 80 to 100 | 0 to 80 | 0 to 80
COc1ccnc(C(=O)N[C@H]2COC[C@H](Cc3ccccc3)[C@@H](OCC(C)C)[C@H](C)OC2=O)c1OCOC(=O)C(C)(C)C [Compound 7] | 80 to 100 | 80 to 100 | 80 to 100 | 0 to 80 | 80 to 100
COc1ccnc(C(=O)N[C@H]2COC[C@H](Cc3ccccc3)[C@@H](Oc3ccccc3)[C@H](C)OC2=O)c1OCOC(C)=O [Compound 40] | 80 to 100 | 80 to 100 | 80 to 100 | 80 to 100 | 0 to 80
COCCCO[C@@H]1[C@@H](Cc2ccccc2)COC[C@H](NC(=O)c2nccc(OC)c2OCOC(C)=O)C(=O)O[C@H]1C [Compound 16] | 80 to 100 | 80 to 100 | 80 to 100 | 0 to 80 | 0 to 80
COc1ccnc(C(=O)N[C@H]2COC[C@H](Cc3ccccc3)[C@@H](OCCCc3ccccc3)[C@H](C)OC2=O)c1OCOC(C)=O [Compound 34] | 80 to 100 | 80 to 100 | 80 to 100 | 80 to 100 | 0 to 80
COc1ccnc(C(=O)N[C@H]2COC[C@H](Cc3ccccc3)[C@@H](OCC(C)C)[C@H](C)OC2=O)c1OCOC(=O)C(C)C [Compound 3] | 80 to 100 | 80 to 100 | 80 to 100 | 0 to 80 | 80 to 100
COc1ccnc(C(=O)N[C@H]2COC[C@H](Cc3ccccc3)[C@@H](OCC(F)F)[C@H](C)OC2=O)c1OCOC(C)=O [Compound 44] | 80 to 100 | 80 to 100 | 80 to 100 | 0 to 80 | 0 to 80
